The target in test [1] is T1, Oxysterols receptor LXR-beta (Homo sapiens, UniProt P55055). The test can be described thus: Binding affinity to LXR-beta ligand binding domain (unknown origin) by TR-FRET assay in presence of 0.1 uM agonist N-(4-(1,1,1,3,3,3-hexafluoro-2-hydroxypropan-2-yl)phenyl)-N-(2,2,2-trifluoroethyl)benzenesulfonamide. Background: In TR-FRET formats the signal depends on donor and acceptor labels being close together.

The target in test [2] is T2, Peroxisome proliferator-activated receptor alpha (Homo sapiens) (UniProt Q07869).
T2 sequence (whole entry): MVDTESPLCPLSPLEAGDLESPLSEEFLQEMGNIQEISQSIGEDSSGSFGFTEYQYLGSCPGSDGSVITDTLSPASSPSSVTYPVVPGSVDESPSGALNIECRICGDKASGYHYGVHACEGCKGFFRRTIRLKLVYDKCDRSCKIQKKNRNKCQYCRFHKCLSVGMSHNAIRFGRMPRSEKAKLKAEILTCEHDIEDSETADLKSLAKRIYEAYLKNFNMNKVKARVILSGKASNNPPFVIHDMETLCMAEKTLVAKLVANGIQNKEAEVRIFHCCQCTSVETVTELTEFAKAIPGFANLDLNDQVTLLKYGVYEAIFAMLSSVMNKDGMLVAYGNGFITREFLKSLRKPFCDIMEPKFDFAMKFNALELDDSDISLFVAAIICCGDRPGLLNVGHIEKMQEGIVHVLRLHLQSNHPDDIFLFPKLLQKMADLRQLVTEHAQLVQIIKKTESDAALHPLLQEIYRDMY
In words: Agonist activity at PPAR-alpha (unknown origin) by luciferase reporter gene assay. Background: Reporter assays use an easily measured gene product as a stand-in for the process of interest.

In test [3] the target is T3, Peroxisome proliferator-activated receptor delta (Homo sapiens) (UniProt Q03181).
T3 sequence (whole entry): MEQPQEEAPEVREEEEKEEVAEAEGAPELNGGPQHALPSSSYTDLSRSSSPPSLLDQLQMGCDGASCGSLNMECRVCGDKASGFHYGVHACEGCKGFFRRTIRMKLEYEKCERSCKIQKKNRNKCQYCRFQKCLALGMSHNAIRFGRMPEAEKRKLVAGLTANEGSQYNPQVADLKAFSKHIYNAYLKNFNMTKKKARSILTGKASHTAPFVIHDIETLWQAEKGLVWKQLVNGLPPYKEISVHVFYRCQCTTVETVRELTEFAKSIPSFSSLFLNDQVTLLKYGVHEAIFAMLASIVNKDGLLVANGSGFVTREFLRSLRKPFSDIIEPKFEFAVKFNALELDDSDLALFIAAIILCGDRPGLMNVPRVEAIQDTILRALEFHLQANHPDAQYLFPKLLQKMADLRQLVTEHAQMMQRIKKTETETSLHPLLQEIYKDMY
In words: Agonist activity at PPAR-delta (unknown origin) by luciferase reporter gene assay.

Test [4] deals with THP-1. The test can be described thus: Effect on SREBP-1c gene expression in human THP1 cells at 10 uM by RT-PCR analysis. The format is functional, cell-based.
The subject of test [5] is THP-1. In words: Effect on ABCA1 gene expression in human THP1 cells at 10 uM by RT-PCR analysis. In kind it is functional, cell-based.
In test [6] the test system is THP-1. In words: Inhibition of LPS-induced IL-6 production in human THP1 cells transfected with LXR-beta CRISPR/Cas9 knockout plasmid at 5 uM after 18 hrs by ELISA. In kind it is functional, cell-based. In general terms: In an ELISA, binding on a coated surface is turned into a signal by an enzyme label.
Test [7] concerns the target T1, Oxysterols receptor LXR-beta. The test can be described thus: Antagonist activity at human LXR-beta transfected in HEK293 cells after 16 hrs by luciferase reporter gene assay in presence of 0.1 uM N-(4-(1,1,1,3,3,3-hexafluoro-2-hydroxypropan-2-yl)phenyl)-N-(2,2,2-trifluoroethyl)benzenesulfonamide. In kind it is cell-based.
Test [8] addresses T4, Peroxisome proliferator-activated receptor gamma (Homo sapiens) (UniProt P37231).
T4 sequence (whole entry): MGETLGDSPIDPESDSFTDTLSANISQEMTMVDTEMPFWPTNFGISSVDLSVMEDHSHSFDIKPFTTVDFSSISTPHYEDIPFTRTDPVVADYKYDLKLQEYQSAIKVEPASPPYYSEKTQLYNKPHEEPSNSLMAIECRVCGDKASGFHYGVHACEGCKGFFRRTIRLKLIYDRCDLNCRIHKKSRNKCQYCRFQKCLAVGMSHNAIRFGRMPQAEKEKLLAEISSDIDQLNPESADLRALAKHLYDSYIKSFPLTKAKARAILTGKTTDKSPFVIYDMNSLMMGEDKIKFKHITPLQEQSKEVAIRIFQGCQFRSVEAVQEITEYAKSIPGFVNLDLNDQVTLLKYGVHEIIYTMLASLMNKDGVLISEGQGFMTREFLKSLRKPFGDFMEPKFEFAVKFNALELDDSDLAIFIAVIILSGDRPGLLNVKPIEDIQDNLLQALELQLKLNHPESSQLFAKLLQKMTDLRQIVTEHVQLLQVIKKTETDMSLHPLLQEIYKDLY
In words: Agonist activity at PPAR-gamma (unknown origin) by luciferase reporter gene assay.

Test [9] concerns the target Oxysterols receptor LXR-alpha (Homo sapiens, UniProt Q13133). The test can be described thus: Antagonist activity at human LXR-alpha transfected in HEK293 cells after 16 hrs by luciferase reporter gene assay in presence of 0.3 uM N-(4-(1,1,1,3,3,3-hexafluoro-2-hydroxypropan-2-yl)phenyl)-N-(2,2,2-trifluoroethyl)benzenesulfonamide. The format is cell-based.

Each structure is given as a SMILES string. The source made the active and inactive calls. The rule behind the calls is not given here.

T1 sequence (P55055 whole entry, the tested form may be a part): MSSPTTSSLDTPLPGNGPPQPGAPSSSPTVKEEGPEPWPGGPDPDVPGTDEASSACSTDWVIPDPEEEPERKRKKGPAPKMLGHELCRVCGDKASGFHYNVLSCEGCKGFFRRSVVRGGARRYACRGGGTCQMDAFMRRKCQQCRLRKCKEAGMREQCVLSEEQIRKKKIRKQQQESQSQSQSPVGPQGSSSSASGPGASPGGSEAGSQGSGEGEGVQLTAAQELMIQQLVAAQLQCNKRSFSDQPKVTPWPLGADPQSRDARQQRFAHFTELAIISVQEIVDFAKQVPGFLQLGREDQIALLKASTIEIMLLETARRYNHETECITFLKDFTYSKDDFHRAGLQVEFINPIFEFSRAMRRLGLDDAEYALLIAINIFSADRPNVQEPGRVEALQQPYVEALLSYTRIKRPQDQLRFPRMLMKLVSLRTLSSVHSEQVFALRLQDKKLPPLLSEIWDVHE
Chain of Oxysterols receptor LXR-alpha (Q13133 whole entry): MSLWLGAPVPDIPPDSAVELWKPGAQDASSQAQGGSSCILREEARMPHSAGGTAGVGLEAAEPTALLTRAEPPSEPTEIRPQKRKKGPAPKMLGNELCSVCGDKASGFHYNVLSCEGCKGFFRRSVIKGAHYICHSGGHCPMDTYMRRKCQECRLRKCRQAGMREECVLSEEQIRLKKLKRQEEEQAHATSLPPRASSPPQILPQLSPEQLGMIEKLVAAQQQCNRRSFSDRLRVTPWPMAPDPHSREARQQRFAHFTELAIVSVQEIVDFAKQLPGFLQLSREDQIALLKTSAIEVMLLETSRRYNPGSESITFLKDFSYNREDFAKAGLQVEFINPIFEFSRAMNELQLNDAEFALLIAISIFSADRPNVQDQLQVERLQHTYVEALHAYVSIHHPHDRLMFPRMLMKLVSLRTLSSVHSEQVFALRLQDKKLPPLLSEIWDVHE

The IC50 is the midpoint of a concentration-inhibition curve. As to `COc1ccc(/C=C/c2ccccc2N2C(=O)c3ccccc3C2=O)cc1OC`, the IC50 is 1.8 µM in test [1], 4.3 µM in [7] and 3.3 µM in test [9]. Also, the inhibition result in test [2], in test [3] and in [8] was “Active” each time. Further, the outcome in the test with THP-1 [4] and in the test with THP-1 [5] was inactive. Further, the inhibition entry in the test on THP-1 [6] is “inactive”.

For the compound `COc1ccc(/C=C\c2ccccc2N2C(=O)c3ccccc3C2=O)cc1OC`, the IC50 in [7] was 21 µM; in test [9] it was 17 µM.

The record behind these values is ChEMBL document CHEMBL3621179, “Styrylphenylphthalimides as Novel Transrepression-Selective Liver X Receptor (LXR) Modulators” (ACS Med Chem Lett, 2015).
